# Experimental data: ChEMBL document CHEMBL1158918, “Novel marine sponge amino acids, 10. Xestoaminols from Xestospongia sp” (1990)
# Tests used:
# [1] = Inhibition of reverse transcriptase at 1 mg/ml; set-up: scale not given: the % may be the effect or the level left
# [2] = system: Nippostrongylus brasiliensis; assay: Antihelminthic activity against Nippostrongylus brasiliensis 4 instar larvae assessed as reduction in viability at 50 ug/mL; assay type: functional
# Streptococcus pyogenes [3] = assay: Antimicrobial activity against Streptococcus pyogenes at 100 ug/disk; assay type: functional; conditions: read-out: IZ
# Staphylococcus aureus = assay: Antimicrobial activity against Staphylococcus aureus at 100 ug/disk; assay type: functional; conditions: read-out: IZ
# Candida albicans [4] = assay: Antimicrobial activity against Candida albicans at 100 ug/disk; assay type: functional; conditions: read-out: IZ
# [5] = system: Trichophyton mentagrophytes; assay: Antimicrobial activity against Trichophyton mentagrophytes at 100 ug/disk; assay type: functional; conditions: read-out: IZ
# [6] = system: Nippostrongylus brasiliensis; assay: Antihelminthic activity against Nippostrongylus brasiliensis 4 instar larvae assessed as reduction in cast formation at 50 ug/mL; assay type: functional; set-up: scale not given: the % may be the effect or the level left
# Escherichia coli = assay: Antimicrobial activity against Escherichia coli at 100 ug/disk; assay type: functional; conditions: read-out: IZ
# [7] = system: Nippostrongylus brasiliensis; assay: Antihelminthic activity against Nippostrongylus brasiliensis 4 instar larvae assessed as reduction in motility at 50 ug/mL; assay type: functional; set-up: scale not given: the % may be the effect or the level left
# [8] = system: Trichophyton mentagrophytes; assay: Antimicrobial activity against Trichophyton mentagrophytes at 10 ug/disk; assay type: functional; conditions: read-out: IZ
# Candida albicans [9] = assay: Antimicrobial activity against Candida albicans at 10 ug/disk; conditions: read-out: IZ
# Streptococcus pyogenes [10] = assay: Antimicrobial activity against Streptococcus pyogenes at 10 ug/disk; assay type: functional, organism-based
molecule,measurement,setting,value
CCCCCCCCCCC[C@@H](O)[C@H](C)N (relative stereo),Activity,[1],95%
CC/C=C/CCCCCCC[C@@H](O)[C@H](C)N (relative stereo) [XETOAMINOL A],Activity,[2],100%
same,Activity,[1],97%
same,zone of inhibition at 100 µg/disc,Streptococcus pyogenes [3],4 mm
same,zone of inhibition at 100 µg/disc,Staphylococcus aureus,3 mm
same,zone of inhibition at 100 µg/disc,Candida albicans [4],7 mm
same,zone of inhibition at 100 µg/disc,[5],13 mm
same,Activity,[6],90%
same,zone of inhibition at 100 µg/disc,Escherichia coli,7 mm
same,Activity,[7],100%
Clc1ccc(COC(Cn2ccnc2)c2ccc(Cl)cc2Cl)c(Cl)c1 (stereo not drawn) [MICONAZOLE],zone of inhibition at 10 µg/disc,[8],11 mm
same,zone of inhibition at 10 µg/disc,Candida albicans [9],10 mm
GENTAMICIN,inhibition zone (IZ),Streptococcus pyogenes [10],10 mm
